Drawing on patent publication EP0334218A1, “Solid, especially suited for oral and rectal adiministration, etofenamate-containing preparations” (HEXAL-PHARMA GMBH & CO. KG, priority 1988, dated 1989), this text covers solubility for 1 molecule.

This series is described as follows: Solubility behaviour (dissolved etofenamate over time) in distilled water. The format is physicochemical. The note with it: 22° C, read-out: Etofenamat gelöst. How it is done:
Vergleich des Löslichkeitsverhaltens von reinem Etofenamat und zwei Etofenamat-Cyclodextrinzubereitungen gemäß der Erfindung:
Die Untersuchungen wurden in destilliertem Wasser bei 22° C durchgeführt und erbrachten die folgenden Ergebnisse: […]

Converted amounts (≈) assume the structure as drawn.

`O=C(OCCOCCO)c1ccccc1Nc1cccc(C(F)(F)F)c1` [Etofenamat, 2-(2-Hydroxyethoxy)-ethyl-N-(α,α,α-trifluoro-m-tolyl)-anthranilat]: the solubility at 1 min (1 min) turned out to be 9 µg/mL (≈ 24.4 µM). Further, for the setting “3 min”, the solubility at 0.05 h turned out to be 11 µg/mL (≈ 29.8 µM). The solubility at 5 min (5 min) came to 11 µg/mL (≈ 29.8 µM). Besides, the solubility at 10 min (10 min) amounted to 11 µg/mL (≈ 29.8 µM). The solubility at 0.25 h (15 min) amounted to 13 µg/mL (≈ 35.2 µM). The solubility at 0.5 h (30 min) is 13 µg/mL (≈ 35.2 µM). In addition, where the note is “45 min”, the solubility at 0.75 h worked out at 11 µg/mL (≈ 29.8 µM). The solubility at 1 h (60 min) turned out to be 12 µg/mL (≈ 32.5 µM).
